The structures appear in SMILES notation. Entries after “also recorded” stand apart in the source; their conditions may differ.

The target in one series is human 5-HT6R (Homo sapiens, UniProt P50406). Briefly: 5-HT6R radioligand competitive binding assay ([3H]LSD).
Another series has as its target T1, human 5-HT6R WT (Homo sapiens, UniProt P50406).
T1 construct: host or cells: HEK-293
Description: 5-HT6R AC assay (cAMP), wild type receptor. It counts as cell-based. Particulars: for disappearance of the 5-HT induced response / functional character at the human 5-HT6R in the AC assay / increase in cAMP levels by ligand alone (agonist effect): HEK-293 cells expressing human 5-HT6R; for IC50: read-out: pIC50, inhibition of 5-HT-induced stimulation of cAMP (converted). Background: cAMP levels reflect the balance of adenylyl cyclase and phosphodiesterase activity.

The target in series [1] is T2, serotonin 5-HT2A receptor (Homo sapiens, UniProt P28223).
T2 construct: Eurofins Cerep (France)
T2 sequence (P28223 whole entry): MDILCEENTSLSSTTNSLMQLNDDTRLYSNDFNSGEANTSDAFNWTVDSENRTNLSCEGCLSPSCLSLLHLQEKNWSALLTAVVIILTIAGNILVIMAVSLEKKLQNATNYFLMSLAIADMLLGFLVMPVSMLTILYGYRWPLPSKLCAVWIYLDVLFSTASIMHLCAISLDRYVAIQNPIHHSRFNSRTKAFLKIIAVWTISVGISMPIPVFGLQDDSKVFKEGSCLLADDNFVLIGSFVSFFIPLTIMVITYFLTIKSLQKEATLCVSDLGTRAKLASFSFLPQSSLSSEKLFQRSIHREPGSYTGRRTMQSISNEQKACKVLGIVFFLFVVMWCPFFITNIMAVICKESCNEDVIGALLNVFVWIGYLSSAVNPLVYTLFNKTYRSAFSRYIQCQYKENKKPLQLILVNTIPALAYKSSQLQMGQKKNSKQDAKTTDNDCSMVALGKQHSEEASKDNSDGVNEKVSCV
Briefly: Selectivity panel radioligand binding, 5-HT2A. Particulars: [3H]ketanserin (0.5 nM), 60 min, RT, read-out: Inhibition (%) (displacement of radioligand).

The nature of series [2]: Metabolic stability in human liver microsomes. The format is in vitro ADME. The following applies: HLMs, compound at 5 μM. As for the experimental part:
(§1) The high-affinity antagonist 7 was selected for the assessment of in vitro pharmacokinetic properties. Metabolic stability using rat and human liver microsomes (RLMs and HLMs, respectively) was determined as a measure of first-pass metabolism. Test compound was incubated at a concentration of 1 and 5 μM with RLM and HLM preparations, respectively. The half-life time (t1/2) was used to calculate the intrinsic clearance (CLint). […] An in vitro fluorescence-based inhibition assay was conducted with cytochrome P450 2D6 (CYP2D6), one of the most important enzymes involved in drug metabolism, using human recombinant microsomal CYP2D6 enzyme, AMMC {3-[2-(N,N-diethyl-N-methylamino)ethyl]-7-methoxy-4-methylcoumarin} as substrate, and quinidine as control inhibitor. After 30 min of incubation with compound 7 at a concentration of 10 μM, a remaining activity of 78% of the cytochrome was found.
(§2) RLM and HLM stability, HSA binding, and fluorescence-based CYP2D6 inhibition assays were performed according to previously reported procedures. Inhibition of hERG K^+ channel current was determined in an automated patch clamp assay using whole CHO-K1 cells at Eurofins Panlab (USA), according to previously published method.
For orientation: Liver microsomes are vesicles of endoplasmic reticulum, rich in cytochrome P450 enzymes.

Series [3] concerns rats (time-induced memory deficit). Description: Novel object recognition task (NORT). Particulars: male Wistar rats, 60 min before each session. It counts as in vivo, rat.
Series [4] concerns the target human serum albumin (HSA) (Homo sapiens, UniProt P02768). Description: HSA binding. The following applies: 5 μM. The format is in vitro ADME.
Series [5] concerns the target T3, serotonin 5-HT2B receptor (Homo sapiens, UniProt P41595).
T3 construct: Eurofins Cerep (France)
Description: Selectivity panel radioligand binding, 5-HT2B. The following applies: [3H]mesulergine, 60 min, RT, read-out: Inhibition (%) (displacement of radioligand).

For the next series, the target named is CYP2D6 (Homo sapiens, UniProt P10635). Description: Fluorescence-based CYP2D6 inhibition assay. The format is in vitro ADME. The following applies: human recombinant microsomal CYP2D6 enzyme, 30 min incubation, AMMC substrate, read-out: remaining activity of CYP2D6. As for the experimental part:
as §1, §2

A short description of series [6]: Metabolic stability in rat liver microsomes. It counts as in vitro ADME. Here is the method:
as §1, §2

Series [7] can be described thus: Parallel artificial membrane permeability assay (PAMPA). The following applies: PBS pH 7.4, 25 °C, read-out: permeability value (P). The format is in vitro ADME.
The target of another series is T4, 5-HT6R C110A (Homo sapiens, UniProt P50406, C110A).
T4 construct: host or cells: HEK-293
T4 sequence (P50406 whole entry C110A): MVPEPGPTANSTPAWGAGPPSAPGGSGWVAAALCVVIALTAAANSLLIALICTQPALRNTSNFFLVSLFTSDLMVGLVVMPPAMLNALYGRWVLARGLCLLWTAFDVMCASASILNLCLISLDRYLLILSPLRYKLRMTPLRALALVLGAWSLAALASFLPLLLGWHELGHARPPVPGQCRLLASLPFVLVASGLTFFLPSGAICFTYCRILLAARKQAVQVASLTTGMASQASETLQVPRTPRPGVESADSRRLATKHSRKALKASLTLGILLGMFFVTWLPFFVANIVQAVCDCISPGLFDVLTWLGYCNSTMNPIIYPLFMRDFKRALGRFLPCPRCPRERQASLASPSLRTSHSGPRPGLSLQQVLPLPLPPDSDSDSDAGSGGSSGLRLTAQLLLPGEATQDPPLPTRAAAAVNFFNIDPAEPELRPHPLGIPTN
Description: 5-HT6R AC assay (cAMP), C110A mutant. The format is cell-based.

The target of a further series is T5, 5-HT6R F285A (Homo sapiens, UniProt P50406, F285A).
T5 construct: host or cells: HEK-293
T5 sequence (P50406 whole entry F285A): as the sequence (P50406 whole entry C110A) above, with A110C, F285A counted along it
Briefly: 5-HT6R AC assay (cAMP), F285A mutant. The format is cell-based.

The target of another series is T6, hERG K+ channel (Homo sapiens, UniProt Q12809).
T6 construct: host or cells: CHO-K1
T6 sequence (Q12809 whole entry): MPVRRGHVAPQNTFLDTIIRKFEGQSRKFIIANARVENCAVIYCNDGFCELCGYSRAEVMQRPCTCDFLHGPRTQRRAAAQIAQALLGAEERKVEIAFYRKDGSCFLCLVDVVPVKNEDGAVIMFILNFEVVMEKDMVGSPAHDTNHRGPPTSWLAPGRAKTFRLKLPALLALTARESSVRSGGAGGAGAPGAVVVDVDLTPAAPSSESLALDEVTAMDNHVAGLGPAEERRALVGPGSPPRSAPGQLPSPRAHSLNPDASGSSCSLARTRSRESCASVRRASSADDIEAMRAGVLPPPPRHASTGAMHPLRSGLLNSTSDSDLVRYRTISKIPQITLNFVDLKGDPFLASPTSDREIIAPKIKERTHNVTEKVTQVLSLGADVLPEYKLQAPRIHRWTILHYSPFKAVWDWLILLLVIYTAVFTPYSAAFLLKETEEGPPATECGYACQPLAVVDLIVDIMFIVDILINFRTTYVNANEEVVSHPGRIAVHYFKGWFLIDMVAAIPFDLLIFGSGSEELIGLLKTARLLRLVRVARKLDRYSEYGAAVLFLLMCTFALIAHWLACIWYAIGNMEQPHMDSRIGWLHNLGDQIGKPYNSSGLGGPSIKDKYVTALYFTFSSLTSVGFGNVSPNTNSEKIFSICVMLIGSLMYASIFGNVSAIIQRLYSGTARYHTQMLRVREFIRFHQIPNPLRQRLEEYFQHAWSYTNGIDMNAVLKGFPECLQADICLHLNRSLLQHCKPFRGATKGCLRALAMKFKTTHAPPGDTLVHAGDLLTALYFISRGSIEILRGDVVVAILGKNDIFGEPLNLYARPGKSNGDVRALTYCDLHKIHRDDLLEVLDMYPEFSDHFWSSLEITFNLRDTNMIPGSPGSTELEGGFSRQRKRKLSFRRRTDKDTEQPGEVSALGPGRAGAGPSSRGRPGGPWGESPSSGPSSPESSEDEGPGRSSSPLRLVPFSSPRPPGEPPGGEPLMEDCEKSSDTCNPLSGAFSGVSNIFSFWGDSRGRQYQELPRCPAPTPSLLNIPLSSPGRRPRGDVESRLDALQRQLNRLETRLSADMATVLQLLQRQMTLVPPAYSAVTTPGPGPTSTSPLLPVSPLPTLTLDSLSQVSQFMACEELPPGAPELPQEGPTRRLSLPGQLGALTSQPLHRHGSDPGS
Briefly: hERG whole-cell patch clamp assay. Particulars: CHO-K1 cells, n = 3, read-out: IC50, blockade of hERG K+ channel current. The format is cell-based. Background: hERG is a cardiac potassium channel; its block is linked to QT prolongation.

Another series concerns the target T7, 5-HT6R S193A (Homo sapiens, UniProt P50406, S193A).
T7 construct: host or cells: HEK-293
Description: 5-HT6R AC assay (cAMP), S193A mutant. The format is cell-based.

In another series the target is T8, 5-HT6R N288A (Homo sapiens, UniProt P50406, N288A).
T8 construct: host or cells: HEK-293
T8 sequence (P50406 whole entry N288A): as the sequence (P50406 whole entry C110A) above, with A110C, N288A counted along it
Briefly: 5-HT6R AC assay (cAMP), N288A mutant. The format is cell-based.

The mark [8] stands for this setting: read-out: pIC50, inhibition of 5-HT-induced stimulation of cAMP (converted).

T1 sequence (P50406 whole entry): as the sequence (P50406 whole entry C110A) above, with A110C counted along it
human 5-HT6R, sequence (P50406 whole entry): as the sequence (P50406 whole entry C110A) above, with A110C counted along it
T7 sequence (P50406 whole entry S193A): as the sequence (P50406 whole entry C110A) above, with A110C, S193A counted along it
T3 sequence (P41595 whole entry): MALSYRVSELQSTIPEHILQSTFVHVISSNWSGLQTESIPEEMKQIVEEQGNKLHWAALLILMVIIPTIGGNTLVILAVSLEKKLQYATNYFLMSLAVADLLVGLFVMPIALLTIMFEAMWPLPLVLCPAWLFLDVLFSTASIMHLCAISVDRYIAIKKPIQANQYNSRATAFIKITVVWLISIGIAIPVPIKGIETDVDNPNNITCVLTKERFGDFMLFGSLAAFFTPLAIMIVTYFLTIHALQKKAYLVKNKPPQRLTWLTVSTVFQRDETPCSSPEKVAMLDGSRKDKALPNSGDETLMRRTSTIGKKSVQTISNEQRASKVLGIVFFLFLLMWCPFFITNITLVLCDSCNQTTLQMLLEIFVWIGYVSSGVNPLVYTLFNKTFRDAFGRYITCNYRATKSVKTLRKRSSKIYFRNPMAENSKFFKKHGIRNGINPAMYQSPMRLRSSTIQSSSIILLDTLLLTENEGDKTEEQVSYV
human serum albumin (HSA), sequence (P02768 25-609): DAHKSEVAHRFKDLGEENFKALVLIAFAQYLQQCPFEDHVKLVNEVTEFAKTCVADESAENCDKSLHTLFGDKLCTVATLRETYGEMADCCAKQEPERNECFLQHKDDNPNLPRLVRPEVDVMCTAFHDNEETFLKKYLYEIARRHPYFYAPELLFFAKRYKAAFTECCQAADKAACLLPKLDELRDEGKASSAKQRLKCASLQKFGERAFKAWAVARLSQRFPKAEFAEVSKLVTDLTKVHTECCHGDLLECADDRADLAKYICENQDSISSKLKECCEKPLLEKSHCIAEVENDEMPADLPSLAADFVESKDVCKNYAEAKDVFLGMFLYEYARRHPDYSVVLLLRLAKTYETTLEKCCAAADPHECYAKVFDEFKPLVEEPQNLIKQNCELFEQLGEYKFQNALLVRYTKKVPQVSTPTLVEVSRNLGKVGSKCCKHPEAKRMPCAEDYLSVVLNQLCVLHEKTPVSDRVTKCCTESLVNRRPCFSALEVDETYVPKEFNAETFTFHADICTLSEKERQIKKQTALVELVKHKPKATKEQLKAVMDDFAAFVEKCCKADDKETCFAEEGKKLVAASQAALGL
CYP2D6, sequence (P10635 whole entry): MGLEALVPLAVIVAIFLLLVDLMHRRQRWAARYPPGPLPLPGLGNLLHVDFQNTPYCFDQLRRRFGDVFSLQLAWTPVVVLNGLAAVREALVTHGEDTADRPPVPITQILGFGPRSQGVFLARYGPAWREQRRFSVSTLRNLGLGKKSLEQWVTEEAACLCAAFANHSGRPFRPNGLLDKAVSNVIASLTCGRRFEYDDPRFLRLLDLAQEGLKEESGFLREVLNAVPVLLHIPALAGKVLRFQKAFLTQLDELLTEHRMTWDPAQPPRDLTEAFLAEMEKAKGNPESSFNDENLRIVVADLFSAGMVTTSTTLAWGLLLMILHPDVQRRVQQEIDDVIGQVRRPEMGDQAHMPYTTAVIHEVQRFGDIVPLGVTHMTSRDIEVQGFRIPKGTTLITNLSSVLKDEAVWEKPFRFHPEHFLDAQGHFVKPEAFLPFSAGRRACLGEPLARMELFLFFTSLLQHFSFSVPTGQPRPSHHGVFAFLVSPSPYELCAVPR

In general, melting point refers to the temperature, or range, at which the solid turns liquid. What is called Ki is a measure of affinity in units of concentration, obtained from inhibition or displacement. In turn, `Cc1c(S(=O)(=O)Nc2ccc3ncn(CCN(C)C)c3c2)sc2ccc(Cl)cc12` [Compound 10] came in with a melting point of 114 to 115 °C. Also, the Ki at human 5-HT6R was 25 nM. Further, at human 5-HT6R WT, the “disappearance of the 5-HT induced response” value is ≥ 95%, the “functional character at the human 5-HT6R in the AC assay” value is on record as “antagonists”, the “increase in cAMP levels by ligand alone (agonist effect)” value is reported as “did not induce a substantial increase in cAMP levels” and the IC50 is 50.1 nM.
The compound `CN(C)CCn1cnc2cc(NC(=O)c3ccccc3)ccc21` [Compound S8] returned a melting point of 113 to 115 °C. Further, on human 5-HT6R, the Ki was > 500 nM.
In the same order, the values of `CN(C)CCn1cnc2ccc(NS(=O)(=O)c3ccccc3)cc21` [Compound 4] are 138 to 140 °C and 200 ± 10 nM.
In the same order, the values of `CN(C)CCn1cnc2cc(NS(=O)(=O)c3ccccc3)ccc21` [Compound 3] are 178 to 180 °C and 213 ± 8 nM.
Take `CN(C)CCn1cnc2ccc(NS(=O)(=O)c3ccc4c(Br)cccc4c3)cc21` [Compound 16]: the affinity at human 5-HT6R corresponds to a Ki of 12 nM. This counts as double-digit nanomolar.
The inhibition is how much of the control response was suppressed. With `CN(C)CCn1cnc2ccc(NS(=O)(=O)c3ccc4c(Cl)cccc4c3)cc21` [Compound 7, 5-Chloro-N-{1-[2-(dimethylamino)ethyl]-1H-benzimidazol-6-yl}naphthalene-2-sulfonamide], the values for the inhibition at 1 µM in series [1] and in series [5] were < 23% and 16%, respectively. In addition, the CLint scaled at 5 μM in [2] (calculated from t1/2, read-out: intrinsic clearance (CLint)) is 8 mL/min/kg. Also, the half-life at 5 μM in series [2] (read-out: half-life time (t1/2)) was found to be 77.5 min. In addition, the “effect on time-induced memory deficit in NORT (exploration of novel vs familiar object)” value in series [3] (1 mg/kg, ip, 1 mg/kg) is listed as “in vivo procognitive activity; also recorded: animals spent more time exploring the novel object than the familiar one; also recorded: significant reversal of the time-delay induced memory deficit”. Also, in [4], the “binding to HSA” value is listed as 70%. The activity at 30 min, 10 µM at CYP2D6 turned out to be 78%. Further, the half-life at 1 μM in series [6] (RLMs, compound at 1 μM, read-out: half-life time (t1/2)) is 20.7 min. Moreover, the CLint scaled at 1 μM in series [6] (read-out: intrinsic clearance (CLint)) came out at 67.8 mL/min/kg. For the same compound, the Papp at 5 h, 200 μM in series [7] was 12 ×10⁻⁶ cm/s. Moreover, the IC50 at 5-HT6R C110A (setting [8]) was 158 nM; at 5-HT6R F285A (setting [8]), ~31600 nM; at human 5-HT6R WT it was 15.8 nM; at hERG K+ channel it was > 10000 nM; on 5-HT6R S193A (setting [8]) it was 1260 nM; on 5-HT6R N288A (setting [8]), 126 nM. Also, the affinity at human 5-HT6R, expressed as Ki, was 9 nM. Also, at human 5-HT6R WT, the “disappearance of the 5-HT induced response” value is recorded as ≥ 95%. For the same compound, the “functional character at the human 5-HT6R in the AC assay” value on human 5-HT6R WT was “antagonists”. Besides, on human 5-HT6R WT, the “increase in cAMP levels by ligand alone (agonist effect)” value is recorded as “did not induce a substantial increase in cAMP levels”.
With `CN(C)CCCn1cnc2cc(C(=O)Nc3ccccc3)ccc21` [Compound S2], the melting point lay within 108 to 110 °C. At human 5-HT6R, the Ki was > 500 nM.
On the same counts, the results for `CN(C)CCn1cnc2c(NS(=O)(=O)c3c(Cl)nc4sccn34)cccc21` [Compound 11] are 71 to 74 °C and 200 ± 13 nM.
In turn, `Cc1c(S(=O)(=O)Nc2ccc3c(c2)ncn3CCN(C)C)sc2ccc(Cl)cc12` [Compound 9] had a melting point of 90 to 93 °C. In addition, the Ki on human 5-HT6R was found to be 245 nM.
With `CN(C)CCn1cnc2c(NC(=O)c3ccccc3)cccc21` [Compound S7], the melting point was in the range of 109 to 112 °C. Also, the Ki at human 5-HT6R is > 500 nM.
In the same order, the values of `CN(C)CCn1cnc2cc(NS(=O)(=O)c3ccc4c(Cl)cccc4c3)ccc21` [Compound 6] are 92 to 95 °C and 112 nM.
On the same counts, the results for `CN(C)CCn1cnc2c(NS(=O)(=O)c3ccc4c(Cl)cccc4c3)cccc21` [Compound 5] are 76 to 78 °C and 64 nM.
Take `Cc1c(S(=O)(=O)Nc2ccc3ncn(CCN(C)C)c3c2)sc2ccc(Br)cc12` [Compound 17]: the Ki at human 5-HT6R was 37 nM.
On to `CN(C)CCn1cnc2ccc(NS(=O)(=O)c3cccc4c(Cl)cccc34)cc21` [Compound 15], for which the melting point was 223 °C (dec.). For the same compound, the affinity at human 5-HT6R, expressed as Ki, was 238 nM.
On the same counts, the results for `CN(C)CCn1cnc2ccc(NS(=O)(=O)c3ccc4ccccc4c3)cc21` [Compound 18] are 207 to 208 °C and 144 nM.
On the same counts, the results for `Cc1c(S(=O)(=O)Nc2cccc3c2ncn3CCN(C)C)sc2ccc(Cl)cc12` [Compound 8] are 90 to 93 °C and 89 nM.
In the same order, the values of `CN(C)CCn1cnc2cccc(NS(=O)(=O)c3ccccc3)c21` [Compound S11] are 142 to 145 °C and > 500 nM.
`CN(C)CCn1cnc2ccc(NC(=O)c3ccccc3)cc21` [Compound S9] returned a melting point of 115 to 117 °C. Moreover, the Ki on human 5-HT6R was > 500 nM.
For `CN(C)CCn1cnc2c(NS(=O)(=O)c3ccccc3)cccc21` [Compound 2], the melting point lay within 121 to 123 °C. On human 5-HT6R, the Ki stood at 243 ± 15 nM.
`CN(C)CCn1cnc2ccc(NS(=O)(=O)c3ccc4cc(Cl)ccc4c3)cc21` [Compound 14]: the melting point is 181 °C (dec.). Further, on human 5-HT6R, the Ki was > 500 nM.
On the same counts, the results for `Cc1c(S(=O)(=O)Nc2ccc3ncn(CCN(C)C)c3c2)sc2ccccc12` [Compound 19] are 175 to 176 °C and 195 nM.
Take `CC(C)NCC(O)COc1cccc2ccccc12` (centres unmarked) [propranolol, reference compound]: the Papp at 5 h, 200 μM in series [7] amounted to 25 ×10⁻⁶ cm/s.
For the compound `NCCc1c[nH]c2ccc(O)cc12` [Compound 5-HT, 5-HT], the “cAMP release (5-HT) Efficacy” value on 5-HT6R C110A (5-HT6R C110A), at 5-HT6R F285A (5-HT6R F285A), on human 5-HT6R WT (5-HT6R WT), on 5-HT6R S193A (5-HT6R S193A) and on 5-HT6R N288A (5-HT6R N288A) was “agonist” throughout.
Turning to `CN(C)CCCn1cnc2c(C(=O)Nc3ccccc3)cccc21` [Compound S1], the melting point was 104 to 106 °C. For the same compound, on human 5-HT6R, the Ki was > 500 nM.
In the case of `Nc1c2c(nc3ccccc13)CCCC2` [tacrine, reference compound], the “effect on time-induced memory deficit in NORT (exploration of novel vs familiar object)” value in [3] (0.5 mg/kg, po) is listed as “animals spent more time exploring the novel object than the familiar one”.
As for `CN(C)CCn1cnc2cc(NS(=O)(=O)c3c(Cl)nc4sccn34)ccc21` [Compound 12], the melting point was in the range of 99 to 101 °C. Further, at human 5-HT6R, the Ki was 33 ± 3 nM.
On the same counts, the results for `CN(C)CCn1cnc2ccc(NS(=O)(=O)c3c(Cl)nc4sccn34)cc21` [Compound 13] are 139 to 141 °C and 182 ± 6 nM.
On the same counts, the results for `CN(C)CCn1cnc2cccc(NC(=O)c3ccccc3)c21` [Compound S10] are 98 to 101 °C and > 500 nM.

These data come from article PMC5259792, “A new serotonin 5-HT6 receptor antagonist with procognitive activity – Importance of a halogen bond interaction to stabilize the binding” (Scientific Reports, 2017).
